Laboratory results taken from PubChem BioAssay (NCI).
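These data come from cells grown in 96-well plates and exposed to compound for 48 hours at five concentrations. Here, GI50 denotes the concentration required for 50% inhibition of growth. Definition used: TGI = concentration required for complete inhibition of growth.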

Key:
Experiment in all cases: NCI anticancer screen, dose series, 48 h
OVCAR-3 ovarian = system: OVCAR-3 ovarian
NCI/ADR-RES ovarian = system: NCI/ADR-RES ovarian
OVCAR-4 ovarian = system: OVCAR-4 ovarian
UACC-62 melanoma = system: UACC-62 melanoma
MDA-MB-231 breast = system: MDA-MB-231 breast
SN12C renal = system: SN12C renal
CAKI-1 renal = system: CAKI-1 renal
HS 578T breast = system: HS 578T breast
ACHN renal = system: ACHN renal
HCC-2998 colon = system: HCC-2998 colon
HOP-62 NSCLC = system: HOP-62 NSCLC
M14 melanoma = system: M14 melanoma
SK-MEL-2 melanoma = system: SK-MEL-2 melanoma
PC-3 prostate = system: PC-3 prostate
LOX IMVI melanoma = system: LOX IMVI melanoma
MDA-MB-435 = system: MDA-MB-435
U251 CNS = system: U251 CNS
SF-539 CNS = system: SF-539 CNS
RPMI-8226 leukemia = system: RPMI-8226 leukemia
K-562 leukemia = system: K-562 leukemia
MALME-3M melanoma = system: MALME-3M melanoma
RXF 393 renal = system: RXF 393 renal
SK-MEL-5 melanoma = system: SK-MEL-5 melanoma
NCI-H23 lung = system: NCI-H23 lung
OVCAR-5 ovarian = system: OVCAR-5 ovarian
DU-145 prostate = system: DU-145 prostate
MCF7 breast = system: MCF7 breast
NCI-H226 lung = system: NCI-H226 lung
T-47D breast = system: T-47D breast
SNB-75 CNS = system: SNB-75 CNS
SF-295 CNS = system: SF-295 CNS
SNB-19 CNS = system: SNB-19 CNS
786-0 renal = system: 786-0 renal
UACC-257 melanoma = system: UACC-257 melanoma
SW-620 colon = system: SW-620 colon
UO-31 renal = system: UO-31 renal
MDA-N = system: MDA-N
HCT-116 colon = system: HCT-116 colon
HT29 colon = system: HT29 colon
SR leukemia = system: SR leukemia
SK-OV-3 ovarian = system: SK-OV-3 ovarian
OVCAR-8 ovarian = system: OVCAR-8 ovarian
IGROV1 ovarian = system: IGROV1 ovarian
TK-10 renal = system: TK-10 renal
A549 NSCLC = system: A549 NSCLC
HOP-92 NSCLC = system: HOP-92 NSCLC
KM12 colon = system: KM12 colon
NCI-H460 lung = system: NCI-H460 lung
CCRF-CEM leukemia = system: CCRF-CEM leukemia
EKVX NSCLC = system: EKVX NSCLC
HCT-15 colon = system: HCT-15 colon
HL-60(TB) leukemia = system: HL-60(TB) leukemia
A498 renal = system: A498 renal
MOLT-4 leukemia = system: MOLT-4 leukemia
NCI-H522 lung = system: NCI-H522 lung
SK-MEL-28 melanoma = system: SK-MEL-28 melanoma
SF-268 CNS = system: SF-268 CNS
COLO 205 colon = system: COLO 205 colon
BT-549 breast = system: BT-549 breast

N#Cc1nc(C2CCC2)oc1N
TGI (OVCAR-3 ovarian): > 100 µM
TGI (NCI/ADR-RES ovarian): > 100 µM
TGI (OVCAR-4 ovarian): > 100 µM
TGI (UACC-62 melanoma): > 100 µM
TGI (MDA-MB-231 breast): > 100 µM
TGI (SN12C renal): > 100 µM
TGI (CAKI-1 renal): > 100 µM
TGI (HS 578T breast): > 100 µM
TGI (ACHN renal): > 100 µM
TGI (HCC-2998 colon): > 100 µM
TGI (HOP-62 NSCLC): > 100 µM
TGI (M14 melanoma): > 100 µM
TGI (SK-MEL-2 melanoma): > 100 µM
TGI (PC-3 prostate): > 100 µM
TGI (LOX IMVI melanoma): > 100 µM
TGI (MDA-MB-435): > 100 µM
TGI (U251 CNS): > 100 µM
TGI (SF-539 CNS): > 100 µM
TGI (RPMI-8226 leukemia): > 100 µM
TGI (K-562 leukemia): > 100 µM
TGI (MALME-3M melanoma): > 100 µM
TGI (RXF 393 renal): > 100 µM
TGI (SK-MEL-5 melanoma): > 100 µM
TGI (NCI-H23 lung): > 100 µM
TGI (OVCAR-5 ovarian): > 100 µM
TGI (DU-145 prostate): > 100 µM
TGI (MCF7 breast): > 100 µM
TGI (NCI-H226 lung): > 100 µM
TGI (T-47D breast): > 100 µM
TGI (SNB-75 CNS): > 100 µM
TGI (SF-295 CNS): > 100 µM
TGI (SNB-19 CNS): > 100 µM
TGI (786-0 renal): > 100 µM
TGI (UACC-257 melanoma): > 100 µM
TGI (SW-620 colon): > 100 µM
TGI (UO-31 renal): > 100 µM
TGI (MDA-N): > 100 µM
TGI (HCT-116 colon): > 100 µM
TGI (HT29 colon): > 100 µM
TGI (SR leukemia): > 100 µM
TGI (SK-OV-3 ovarian): > 100 µM
TGI (OVCAR-8 ovarian): > 100 µM
TGI (IGROV1 ovarian): > 100 µM
TGI (TK-10 renal): > 100 µM
TGI (A549 NSCLC): > 100 µM
TGI (HOP-92 NSCLC): > 100 µM
TGI (KM12 colon): > 100 µM
TGI (NCI-H460 lung): > 100 µM
TGI (CCRF-CEM leukemia): 54.7 µM
TGI (EKVX NSCLC): > 100 µM
TGI (HCT-15 colon): > 100 µM
TGI (HL-60(TB) leukemia): > 100 µM
TGI (A498 renal): > 100 µM
TGI (MOLT-4 leukemia): > 100 µM
TGI (NCI-H522 lung): > 100 µM
TGI (SK-MEL-28 melanoma): > 100 µM
TGI (SF-268 CNS): > 100 µM
TGI (COLO 205 colon): > 100 µM

CC(=O)OC1CCC2C3CCc4c(C)ccc(OS(=O)(=O)c5ccccc5)c4C3CCC12C (stereo not drawn)
TGI (OVCAR-3 ovarian): 46.7 µM
TGI (OVCAR-4 ovarian): 88.4 µM
TGI (UACC-62 melanoma): > 100 µM
TGI (MDA-MB-231 breast): > 100 µM
TGI (SN12C renal): > 100 µM
TGI (CAKI-1 renal): > 100 µM
TGI (ACHN renal): > 100 µM
TGI (HCC-2998 colon): > 100 µM
TGI (HOP-62 NSCLC): > 100 µM
TGI (SK-MEL-2 melanoma): > 100 µM
TGI (BT-549 breast): > 100 µM
TGI (PC-3 prostate): > 100 µM
TGI (LOX IMVI melanoma): > 100 µM
TGI (MDA-MB-435): > 100 µM
TGI (U251 CNS): > 100 µM
TGI (RPMI-8226 leukemia): > 100 µM
TGI (K-562 leukemia): > 100 µM
TGI (MALME-3M melanoma): > 100 µM
TGI (RXF 393 renal): 94.4 µM
TGI (SK-MEL-5 melanoma): 23.1 µM
TGI (NCI-H23 lung): > 100 µM
TGI (OVCAR-5 ovarian): > 100 µM
TGI (DU-145 prostate): > 100 µM
TGI (MCF7 breast): > 100 µM
TGI (NCI-H226 lung): > 100 µM
TGI (SF-295 CNS): > 100 µM
TGI (SNB-19 CNS): > 100 µM
TGI (786-0 renal): 36.9 µM
TGI (UACC-257 melanoma): > 100 µM
TGI (SW-620 colon): > 100 µM
TGI (UO-31 renal): 50.1 µM
TGI (MDA-N): > 100 µM
TGI (HCT-116 colon): 48.3 µM
TGI (HT29 colon): > 100 µM
TGI (SR leukemia): > 100 µM
TGI (SK-OV-3 ovarian): > 100 µM
TGI (IGROV1 ovarian): > 100 µM
TGI (TK-10 renal): > 100 µM
TGI (HOP-92 NSCLC): 37.9 µM
TGI (NCI-H460 lung): > 100 µM
TGI (CCRF-CEM leukemia): > 100 µM
TGI (EKVX NSCLC): > 100 µM
TGI (HCT-15 colon): > 100 µM
TGI (HL-60(TB) leukemia): > 100 µM
TGI (A498 renal): > 100 µM
TGI (MOLT-4 leukemia): > 100 µM
TGI (NCI-H522 lung): > 100 µM
TGI (SK-MEL-28 melanoma): > 100 µM
TGI (SF-268 CNS): > 100 µM
TGI (COLO 205 colon): > 100 µM

CN1CCN(c2cc3nsnc3c3nsnc23)CC1
TGI (UACC-62 melanoma): > 10 µM
TGI (MDA-MB-231 breast): > 10 µM
TGI (SN12C renal): > 10 µM
TGI (CAKI-1 renal): > 10 µM
TGI (HCC-2998 colon): > 10 µM
TGI (HOP-62 NSCLC): > 10 µM
TGI (M14 melanoma): > 10 µM
TGI (PC-3 prostate): > 10 µM
TGI (LOX IMVI melanoma): > 10 µM
TGI (RPMI-8226 leukemia): > 10 µM
TGI (K-562 leukemia): > 10 µM
TGI (MALME-3M melanoma): > 10 µM
TGI (RXF 393 renal): > 10 µM
TGI (SK-MEL-5 melanoma): > 10 µM
TGI (NCI-H23 lung): > 10 µM
TGI (DU-145 prostate): > 10 µM
TGI (MCF7 breast): > 10 µM
TGI (T-47D breast): > 10 µM
TGI (SNB-75 CNS): > 10 µM
TGI (SF-295 CNS): > 10 µM
TGI (786-0 renal): > 10 µM
TGI (UACC-257 melanoma): > 10 µM
TGI (SW-620 colon): > 10 µM
TGI (MDA-N): > 10 µM
TGI (HT29 colon): > 10 µM
TGI (SR leukemia): > 10 µM
TGI (SK-OV-3 ovarian): > 10 µM
TGI (OVCAR-8 ovarian): > 10 µM
TGI (IGROV1 ovarian): > 10 µM
TGI (TK-10 renal): > 10 µM
TGI (A549 NSCLC): > 10 µM
TGI (KM12 colon): > 10 µM
TGI (CCRF-CEM leukemia): > 10 µM
TGI (EKVX NSCLC): > 10 µM
TGI (HCT-15 colon): > 10 µM
TGI (HL-60(TB) leukemia): > 10 µM
TGI (MOLT-4 leukemia): > 10 µM
TGI (SK-MEL-28 melanoma): > 10 µM
TGI (SF-268 CNS): > 10 µM
TGI (COLO 205 colon): > 10 µM

CC(=O)c1cnc2oc3ccc(O)cc3c2c1-c1ccccc1
TGI (OVCAR-3 ovarian): 82.6 µM
GI50 (NCI/ADR-RES ovarian): 19.6 µM
TGI (NCI/ADR-RES ovarian): 75 µM
TGI (OVCAR-4 ovarian): 36.6 µM
TGI (UACC-62 melanoma): 70.4 µM
TGI (MDA-MB-231 breast): > 100 µM
TGI (SN12C renal): > 100 µM
TGI (CAKI-1 renal): > 100 µM
TGI (HS 578T breast): > 100 µM
TGI (ACHN renal): > 100 µM
TGI (HCC-2998 colon): > 100 µM
TGI (M14 melanoma): > 100 µM
TGI (SK-MEL-2 melanoma): > 100 µM
TGI (PC-3 prostate): > 100 µM
TGI (LOX IMVI melanoma): > 100 µM
TGI (MDA-MB-435): > 100 µM
TGI (U251 CNS): > 100 µM
TGI (SF-539 CNS): 46.2 µM
TGI (RPMI-8226 leukemia): > 100 µM
TGI (K-562 leukemia): > 100 µM
TGI (MALME-3M melanoma): 81.2 µM
TGI (RXF 393 renal): > 100 µM
TGI (SK-MEL-5 melanoma): > 100 µM
TGI (NCI-H23 lung): > 100 µM
TGI (OVCAR-5 ovarian): > 100 µM
TGI (DU-145 prostate): > 100 µM
TGI (MCF7 breast): > 100 µM
TGI (NCI-H226 lung): > 100 µM
TGI (T-47D breast): 80.4 µM
GI50 (SNB-75 CNS): 2.57 µM
TGI (SNB-75 CNS): 22 µM
TGI (SF-295 CNS): > 100 µM
TGI (SNB-19 CNS): > 100 µM
TGI (786-0 renal): > 100 µM
TGI (UACC-257 melanoma): > 100 µM
TGI (SW-620 colon): > 100 µM
TGI (MDA-N): > 100 µM
TGI (HCT-116 colon): > 100 µM
TGI (HT29 colon): > 100 µM
TGI (SR leukemia): > 100 µM
TGI (SK-OV-3 ovarian): 45.4 µM
TGI (OVCAR-8 ovarian): > 100 µM
GI50 (IGROV1 ovarian): 5.04 µM
TGI (IGROV1 ovarian): 45 µM
TGI (TK-10 renal): > 100 µM
TGI (A549 NSCLC): > 100 µM
TGI (HOP-92 NSCLC): > 100 µM
GI50 (KM12 colon): 40.8 µM
TGI (KM12 colon): > 100 µM
TGI (NCI-H460 lung): > 100 µM
TGI (CCRF-CEM leukemia): > 100 µM
TGI (EKVX NSCLC): > 100 µM
TGI (HCT-15 colon): > 100 µM
TGI (HL-60(TB) leukemia): > 100 µM
TGI (A498 renal): 88.6 µM
TGI (MOLT-4 leukemia): > 100 µM
TGI (SK-MEL-28 melanoma): > 100 µM
GI50 (SF-268 CNS): 27.7 µM
TGI (SF-268 CNS): > 100 µM
TGI (COLO 205 colon): > 100 µM
